A short description of data set [1]: Induction of progranulin secretion in mouse BV-2 cells. Format: functional, cell-based.
Data set [2] deals with Voltage-gated inwardly rectifying potassium channel KCNH2 (Homo sapiens, UniProt Q12809). The data set can be described thus: Inhibition of human ERG. It counts as toxicity.
Data set [3] concerns the target Muscarinic acetylcholine receptor M3 (Homo sapiens, UniProt P20309). The data set can be described thus: Antagonist activity at M3 receptor (unknown origin).
Data set [4] in a line: Apparent permeability across apical to basolateral side in MDCK-MDR1 cells. It counts as ADME, cell-based, Canis lupus familiaris. The settings on record: dog.
Data set [5] can be described thus: Efflux ratio of apparent permeability in MDCK-MDR1 cells. Format: ADME, cell-based, Canis lupus familiaris. The note with it: dog.
A short description of data set [6]: Protein binding in mouse assessed as unbound fraction. It counts as ADME.
Data set [7] is described as follows: Protein binding in human assessed as unbound fraction. Format: ADME.
Data set [8] can be described thus: Protein binding in mouse brain assessed as unbound fraction. It counts as ADME, tissue-based.
The nature of data set [9]: Metabolic stability in mouse hepatocytes assessed as half life measured upto 120 mins. It counts as ADME, cell-based, Hepatocyte.
A short description of data set [10]: Metabolic stability in mouse hepatocytes assessed as intrinsic clearance. Format: ADME, cell-based, Hepatocyte.
The nature of data set [11]: Metabolic stability in human hepatocytes assessed as half life measured upto 120 mins. It counts as ADME, cell-based, Hepatocyte.
The nature of data set [12]: Metabolic stability in human hepatocytes assessed as intrinsic clearance. It counts as ADME, cell-based, Hepatocyte.
A short description of data set [13]: Half life in mouse at 10 mg/kg, po. It counts as ADME, organism-based. The note with it: in vivo.
Data set [14] can be described thus: Half life in mouse at 1 mg/kg, iv. It counts as ADME, organism-based. The settings on record: in vivo.
Data set [15] can be described thus: Unbound Cmax in mouse at 10 mg/kg, po or 1 mg/kg, iv. It counts as ADME, organism-based. The note with it: in vivo.
Data set [16] in a line: Unbound brain to plasma partition coefficient in mouse at 10 mg/kg, po or 1 mg/kg, iv after 8 hrs. The settings on record: read-out: K(p,uu,brain). It counts as ADME, organism-based.
The nature of data set [17]: Bioavailability in mouse at 10 mg/kg, po or 1 mg/kg, iv. It counts as ADME, organism-based. The note with it: in vivo.
A short description of data set [18]: Clearance in mouse at 10 mg/kg, po or 1 mg/kg, iv. The note with it: in vivo. It counts as ADME, organism-based.
Data set [19] can be described thus: Volume of distribution at steady state in mouse at 10 mg/kg, po or 1 mg/kg, iv. It counts as ADME, organism-based. The note with it: in vivo.

Some results are limits rather than exact numbers.

Voltage-gated inwardly rectifying potassium channel KCNH2, sequence (Q12809 whole entry): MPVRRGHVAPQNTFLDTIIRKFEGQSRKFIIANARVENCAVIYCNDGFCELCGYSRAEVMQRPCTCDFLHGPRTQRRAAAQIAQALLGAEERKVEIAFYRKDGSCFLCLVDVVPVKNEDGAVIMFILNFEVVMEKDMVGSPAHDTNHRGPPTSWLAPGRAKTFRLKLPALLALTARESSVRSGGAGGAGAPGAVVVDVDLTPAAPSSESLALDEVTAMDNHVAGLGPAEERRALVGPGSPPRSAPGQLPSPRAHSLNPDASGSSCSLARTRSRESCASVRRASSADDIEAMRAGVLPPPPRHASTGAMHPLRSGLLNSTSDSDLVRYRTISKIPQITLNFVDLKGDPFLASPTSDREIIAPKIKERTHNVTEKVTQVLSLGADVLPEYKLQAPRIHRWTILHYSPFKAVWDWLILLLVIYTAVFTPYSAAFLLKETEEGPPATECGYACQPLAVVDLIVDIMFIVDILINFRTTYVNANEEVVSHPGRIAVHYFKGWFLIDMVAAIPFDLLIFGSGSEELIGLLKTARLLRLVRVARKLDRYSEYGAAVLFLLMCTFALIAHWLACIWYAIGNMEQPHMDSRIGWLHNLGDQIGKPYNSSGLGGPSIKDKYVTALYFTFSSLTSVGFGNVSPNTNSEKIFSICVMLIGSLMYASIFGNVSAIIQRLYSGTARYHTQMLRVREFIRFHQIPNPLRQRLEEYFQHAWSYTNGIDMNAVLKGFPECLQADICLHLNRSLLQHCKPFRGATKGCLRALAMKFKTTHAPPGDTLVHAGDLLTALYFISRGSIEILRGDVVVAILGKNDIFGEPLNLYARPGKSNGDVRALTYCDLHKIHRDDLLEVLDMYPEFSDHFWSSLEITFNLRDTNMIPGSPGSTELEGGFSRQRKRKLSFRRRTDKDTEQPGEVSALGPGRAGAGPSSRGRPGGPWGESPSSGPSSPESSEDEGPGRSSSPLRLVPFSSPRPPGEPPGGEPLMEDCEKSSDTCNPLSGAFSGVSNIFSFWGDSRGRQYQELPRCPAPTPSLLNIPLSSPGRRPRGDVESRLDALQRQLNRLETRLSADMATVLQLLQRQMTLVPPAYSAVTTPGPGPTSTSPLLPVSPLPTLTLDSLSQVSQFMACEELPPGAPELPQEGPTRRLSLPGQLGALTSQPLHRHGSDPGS
Muscarinic acetylcholine receptor M3, sequence (P20309 whole entry): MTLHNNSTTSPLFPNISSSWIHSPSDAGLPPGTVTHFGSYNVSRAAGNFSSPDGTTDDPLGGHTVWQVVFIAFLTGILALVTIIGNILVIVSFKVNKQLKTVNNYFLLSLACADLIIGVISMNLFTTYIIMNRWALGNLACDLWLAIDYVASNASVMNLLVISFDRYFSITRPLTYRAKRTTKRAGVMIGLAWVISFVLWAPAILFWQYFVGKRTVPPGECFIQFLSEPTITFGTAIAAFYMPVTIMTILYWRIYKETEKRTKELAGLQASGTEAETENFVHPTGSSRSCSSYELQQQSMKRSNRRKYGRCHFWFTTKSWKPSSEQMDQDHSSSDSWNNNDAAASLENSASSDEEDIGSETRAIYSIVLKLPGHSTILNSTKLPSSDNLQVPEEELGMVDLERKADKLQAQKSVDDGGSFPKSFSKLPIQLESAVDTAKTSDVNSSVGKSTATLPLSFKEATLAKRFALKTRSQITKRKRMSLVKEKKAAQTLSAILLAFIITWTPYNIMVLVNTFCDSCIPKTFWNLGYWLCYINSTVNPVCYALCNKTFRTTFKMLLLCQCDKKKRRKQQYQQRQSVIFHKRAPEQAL

The EC50 is the concentration needed to bring the measured effect to its halfway point. The term IC50 denotes the concentration at which inhibition is half-maximal. A high value points to weaker potency. With `O=C(O[C@H]1CN2CCC1CC2)N1CCc2ccccc2[C@@H]1c1ccc(F)cc1`, the values for the half-maximal effective concentration (EC50) in data set [1] and in data set [3] were 0.257 µM and 17 µM, respectively. The same compound yielded an IC50 in data set [2] of 0.34 µM.
By Papp A→B is commonly meant how fast a substance crosses the layer from the apical side. As usually defined, the efflux ratio is the permeability from basolateral to apical divided by that in the opposite direction, in the common usage. What is called fraction unbound is the share of the substance not bound to proteins or other matrix. Broadly, the half-life is how long it takes for the measured level to halve. As usually defined, the bioavailability is dose-corrected exposure relative to a reference, in per cent. A low value points to little systemic uptake. `Fc1ccc([C@H]2c3ccccc3CCN2C2=N[C@H](C3(F)CNC3)CO2)cc1` yielded an EC50 in [1] of 0.083 µM. In data set [2], this compound gave a concentration for half-maximal inhibition (IC50) of 3.1 µM. In data set [4], the Papp A→B came out at 0.53 ×10⁻⁶ cm/s. Further, the efflux ratio in data set [5] turned out to be 1.11. The fraction unbound in [6] worked out at 0.031; in [7] it was 0.055; in [8], 0.009. Moreover, the half-life in [9] was more than 2 h; in [11], more than 2 h; in data set [13] it was 4.8 h; in data set [14] it was 7.4 h. The CLH in [10] was less than 68.2 µL/min/mg; in data set [12], less than 14.7 µL/min/mg. In [15], this compound returned a fCmax of 62 nM. Also, in [16], the Kp uu at 8 h worked out at 2.91. For the same compound, in [17], the bioavailability was 99%. This compound also yielded a CL in data set [18] of 34.7 mL/min/kg. This compound had a Vdss in data set [19] of 15.2 L/kg.
In the case of `O=C(O[C@H]1CN2CCC1CC2)N1CCc2ccccc2[C@@H]1c1ccccc1` [SOLIFENACIN], the figures for the EC50 in data set [1] and in [3] were 1.3 µM and 0.024 µM, respectively.
`Fc1ccc([C@H]2c3ccccc3CCN2C2=NC[C@@H](C3(F)CNC3)O2)cc1` registered a 50% effective concentration (EC50) in [1] of 0.132 µM. Further, in data set [2], half-maximal inhibition (IC50) was put at 3.6 µM. Besides, the apparent permeability from apical to basolateral (Papp A→B) in data set [4] was found to be 0.87 ×10⁻⁶ cm/s. The efflux ratio in [5] is 1.07. The fraction unbound was found to be 0.021 in data set [6], 0.068 in data set [7] and 0.01 in data set [8]. The half-life is more than 2 h in data set [9], more than 2 h in data set [11], 2.6 h in [13] and 2.2 h in [14]. The CLH in data set [10] is less than 68.2 µL/min/mg; in data set [12], less than 14.7 µL/min/mg. In [15], this compound had a fCmax of 11 nM. Moreover, the Kp uu at 8 h in data set [16] turned out to be 8.33. In addition, the bioavailability in [17] came out at 38%. The same compound had a CL in data set [18] of 89.3 mL/min/kg. Further, the Vdss in [19] is 12.2 L/kg.
Regarding `Fc1ccc([C@H]2c3ccccc3CCN2C2=NC[C@@H](C3CN4CCC3CC4)O2)cc1` (some centres undefined), a half-maximal effect in data set [1] (EC50) was put at 0.218 µM. In addition, in data set [2], the IC50 was 0.69 µM. The Papp A→B in data set [4] was 3.07 ×10⁻⁶ cm/s. The efflux ratio in [5] was 2.12. Besides, the unbound share (fraction unbound) in data set [6] was found to be 0.056; in [7], 0.141; in data set [8], 0.02. Moreover, the half-life in data set [9] is 0.0785 h; in [11], 0.242 h; in data set [13], 11.4 h; in data set [14] it was 4.17 h. For the same compound, the CLH is 147.03 µL/min/mg in data set [10] and 47.79 µL/min/mg in data set [12]. The compound also gave a fCmax in data set [15] of 6 nM. In addition, the Kp uu at 8 h in data set [16] came to 2.7. For the same compound, in [17], the bioavailability is 25%. In [18], this compound displayed a CL of 156 mL/min/kg. This compound also gave a Vdss in data set [19] of 38.8 L/kg.

For the origin of these results see ChEMBL document CHEMBL5236587, “Discovery of oxazoline enhancers of cellular progranulin release” (Bioorg Med Chem Lett, 2023).
